Test results: ChEMBL document CHEMBL4321836, “Discovery of BAY-298 and BAY-899: Tetrahydro-1,6-naphthyridine-Based, Potent, and Selective Antagonists of the Luteinizing Hormone Receptor Which Reduce Sex Hormone Levels in Vivo” (J Med Chem, 2019)

Columns and labels:
[1] = tested on: Rattus norvegicus; experiment: Downregulation of human luteinizing hormone-induced progesterone expression in plasma of cetrorelix-treated female rat at 4.5 mg/kg, iv after 2 hrs by radioimmunoassay method (reference value: 243 nM); type: functional
[2] = tested on: Rattus norvegicus; experiment: Downregulation of human luteinizing hormone-induced progesterone expression in plasma of cetrorelix-treated iv dosed female rat after 2 hrs by radioimmunoassay method; type: functional, organism-based
[3] = tested on: Rattus norvegicus; experiment: Downregulation of human luteinizing hormone-induced progesterone expression in plasma of cetrorelix-treated female rat at 27 mg/kg, iv after 2 hrs by radioimmunoassay method (reference value: 243 nM); type: functional
[4] = tested on: Rattus norvegicus; experiment: Effect on folliculo-genesis in 4 day cycle of po dosed normally cycling female rat assessed as induction of cycle arrest in metestrus stage by observing vaginal smears administered once daily for 8 days and measured for 2 cycle-stage; type: functional, organism-based
[5] = biological target: Luteinizing hormone/choriogondaotropin receptor (Macaca fascicularis, UniProt F5A8F7); experiment: Antagonist activity at cynomolgus monkey luteinizing hormone receptor expressed in HEK293 cells assessed as reduction in agonist-induced cAMP production preincubated for 30 mins followed by agonist solution addition and measured after 30 mins by cell based TR-FRET assay
Luteinizing hormone/choriogondaotropin receptor, sequence (F5A8F7 whole entry): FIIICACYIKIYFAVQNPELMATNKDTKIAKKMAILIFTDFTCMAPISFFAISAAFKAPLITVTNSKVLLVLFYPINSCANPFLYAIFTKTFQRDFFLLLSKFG

[6] = biological target: T1, Lutropin-choriogonadotropic hormone receptor (Homo sapiens, UniProt P22888); experiment: (§1) Negative allosteric modulation of human luteinizing hormone receptor assessed as reduction in glycoprotein human luteinizing hormone-induced agonist activity preincubated for 20 mins followed by 1 times EC80 of agonist addition and measured after 60 mins by cell based TR-FRET assay relative to control
T1 sequence (P22888 whole entry): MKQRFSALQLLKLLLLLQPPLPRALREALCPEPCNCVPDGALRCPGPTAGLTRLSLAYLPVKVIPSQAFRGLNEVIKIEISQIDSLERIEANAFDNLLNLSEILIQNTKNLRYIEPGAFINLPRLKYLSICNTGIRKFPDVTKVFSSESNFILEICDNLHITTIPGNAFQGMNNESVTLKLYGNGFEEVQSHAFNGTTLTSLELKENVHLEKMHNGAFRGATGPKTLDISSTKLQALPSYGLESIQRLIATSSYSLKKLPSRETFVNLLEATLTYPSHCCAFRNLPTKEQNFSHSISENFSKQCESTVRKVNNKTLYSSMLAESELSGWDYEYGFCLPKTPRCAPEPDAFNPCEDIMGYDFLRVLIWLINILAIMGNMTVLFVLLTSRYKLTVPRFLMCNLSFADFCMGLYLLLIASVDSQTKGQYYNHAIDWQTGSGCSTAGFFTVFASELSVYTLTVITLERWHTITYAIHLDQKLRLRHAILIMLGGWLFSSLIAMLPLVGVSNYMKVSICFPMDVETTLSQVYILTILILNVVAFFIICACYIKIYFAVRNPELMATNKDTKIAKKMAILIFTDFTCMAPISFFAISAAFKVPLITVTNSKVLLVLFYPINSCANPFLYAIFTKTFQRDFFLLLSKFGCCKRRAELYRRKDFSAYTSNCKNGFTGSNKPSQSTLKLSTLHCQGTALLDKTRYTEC

[7] = tested on: Rattus norvegicus; experiment: Downregulation of 0.3 ug human luteinizing hormone-induced testosterone expression in plasma of cetrorelix-treated male rat at 14 mg/kg, iv after 2 hrs by radioimmunoassay method (reference value: 33.4 nM); type: functional
[8] = biological target: T1, Lutropin-choriogonadotropic hormone receptor; experiment: as §1, with “4” for “1”
[9] = tested on: Rattus norvegicus; experiment: Downregulation of estradiol level in proestrus staged-female rat serum at 72 mg/kg, po administered once daily for 8 days and measured by radioimmunoassay method (reference value: 125 pmol/L); type: functional
[10] = biological target: T1, Lutropin-choriogonadotropic hormone receptor; experiment: Negative allosteric modulation of human luteinizing hormone receptor assessed as reduction in Org 43553-induced agonist activity preincubated for 20 mins followed by 4 times EC80 of agonist addition and measured after 60 mins by cell based TR-FRET assay relative to control
[11] = Fraction unbound in female rat at 4.5 to 72 mg/kg, po administered once daily for 8 days; type: ADME, organism-based; conditions: in vivo
[12] = tested on: Rattus norvegicus; experiment: Effect on folliculo-genesis in 4 day cycle of po dosed normally cycling female rat assessed as induction of cycle arrest in diestrus stage by observing vaginal smears administered once daily for 8 days; type: functional, organism-based
[13] = biological target: T1, Lutropin-choriogonadotropic hormone receptor; experiment: as §1, with “10” for “1”
[14] = biological target: T1, Lutropin-choriogonadotropic hormone receptor; experiment: as §1, with “100” for “1”
[15] = biological target: T1, Lutropin-choriogonadotropic hormone receptor; experiment: Negative allosteric modulation of human luteinizing hormone receptor assessed as reduction in Org 43553-induced agonist activity preincubated for 20 mins followed by 10 times EC80 of agonist addition and measured after 60 mins by cell based TR-FRET assay relative to control
[16] = biological target: T1, Lutropin-choriogonadotropic hormone receptor; experiment: as §1, with “Emax for” for “reduction in”, “activity at 0.84 nM to 17 uM” for “activity”, “100” for “1”
[17] = biological target: T1, Lutropin-choriogonadotropic hormone receptor; experiment: as §1, with “Emax for” for “reduction in”, “activity at 0.84 nM to 17 uM” for “activity”, “10” for “1”
[18] = biological target: T1, Lutropin-choriogonadotropic hormone receptor; experiment: as §1, with “Emax for” for “reduction in”, “activity at 0.84 nM to 17 uM” for “activity”, “16” for “1”; conditions: at 0.00084 to 17 µM
[19] = tested on: Rattus norvegicus; experiment: Downregulation of human luteinizing hormone-induced COX-2 mRNA expression in cetrorelix-treated iv dosed female rat after 2 hrs by Taqman probe based RT-PCR analysis; type: functional, organism-based
[20] = tested on: Rattus norvegicus; experiment: Downregulation of 0.1 ug human luteinizing hormone-induced testosterone expression in plasma of cetrorelix-treated male rat at 14 mg/kg, iv after 2 hrs by radioimmunoassay method (reference value: 33.4 nM); type: functional
[21] = biological target: T1, Lutropin-choriogonadotropic hormone receptor; experiment: Negative allosteric modulation of human luteinizing hormone receptor assessed as reduction in Org 43553-induced agonist activity preincubated for 20 mins followed by 1 times EC80 of agonist addition and measured after 60 mins by cell based TR-FRET assay relative to control
[22] = tested on: Rattus norvegicus; experiment: Downregulation of estradiol level in proestrus staged-female rat serum at 36 mg/kg, po administered once daily for 8 days and measured by radioimmunoassay method (reference value: 125 pmol/L); type: functional

IC50 [5]: 78 nM
IC50 [6]: 97 nM
IC50 [8]: 200 nM
IC50 [10]: 1200 nM
fraction unbound at 192 h [11]: 0.0024
IC50 [13]: 2200 nM
IC50 [14]: 2500 nM
IC50 [15]: 1500 nM
Emax [16]: 98%
Emax [17]: 106%
Emax [18]: 109%
IC50 [21]: 650 nM
SMILES: O=C(Nc1ccc(Oc2ccc(F)cc2)cc1)N1CCc2ncccc2[C@@H]1c1ccc(Cl)cc1
Activity [1]: 76 nM
Activity [2]: Dose-dependent effect
Activity [3]: 50 nM
Activity [4]: Dose-dependent effect
Activity [7]: 12.6 nM
Activity [9]: <39 pmol/L
Activity [12]: Dose-dependent effect
Activity [19]: Dose-dependent effect
Activity [20]: 2.5 nM
Activity [22]: 48 pmol/L
